The values that follow come from patent US10889849B2, “Oxidized glutathione assay” (PROMEGA CORPORATION, priority 2010, dated 2021).

For one test, the target named is T1, S. japonica GST (Sigma) (Schistosoma japonicum, UniProt P08515).
T1 construct: purchased Sigma
Briefly: Two step luminescent test of GST-3 as GST substrate, S. japonica GST. It is filed as biochemical. As to the method: (§1) In the first step, GST-3 was added to a mixture containing a GST enzyme with or without glutathione. At different times after reaction initiation, a portion of the reaction was mixed with a luciferase reaction mixture. Reactions in which light production increased over time indicate that the derivative, GST-3, is a substrate for GST and can be used in an assay to detect GST and/or reduced glutathione (GSH).
(§2) Various GST enzyme forms were used to test the use of GST-3 as a substrate for GST to detect GST or GSH. All components except for the GST enzyme were added.

In another test the test system is porcine GST (Sigma). Briefly: Two step luminescent test of GST-3 as GST substrate, porcine GST. It counts as biochemical. As to the method: as §1, §2
The subject of another test is equine GST (Sigma). Briefly: Two step luminescent test of GST-3 as GST substrate, equine GST. It counts as biochemical. As to the method: as §1, §2
Test [1] in a line: Two step luminescent test of GST-3, reactions without GST enzyme. It is filed as biochemical. As to the method: as §1, §2
The target in a further test is T2, GST (Promega) (Schistosoma japonicum, UniProt P08515).
T2 construct: purchased Promega
T2 sequence (P08515 whole entry): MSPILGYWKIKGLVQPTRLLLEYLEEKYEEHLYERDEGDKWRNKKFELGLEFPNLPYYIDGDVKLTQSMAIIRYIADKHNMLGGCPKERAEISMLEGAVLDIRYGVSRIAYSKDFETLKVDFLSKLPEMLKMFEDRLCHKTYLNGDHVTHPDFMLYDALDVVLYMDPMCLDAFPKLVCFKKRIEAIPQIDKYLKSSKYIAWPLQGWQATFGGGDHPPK
Put plainly: GSSG measurement with other luciferin derivatives (luminescence). It counts as biochemical. The note with it: GSSG 0.0 μM, luminescence without GSSG subtracted. As to the method: Oxidized glutathione was serially diluted from a 10 mM stock in water to 0, 0.1, 0.5 and 2.5 uM into three different 96-well luminometer plates with duplicate reactions performed. A 30 μl sample of the GST 30 stock was diluted to 3 ml with GSH Glo Reaction Buffer (Promega), and 25 μl added to one of the plates (“30”). A 30 μl sample of GST 28 was diluted to 3 ml with GSH Glo Reaction Buffer, and 25 μl added to a second plate (“28”). A 110 μL sample of GST-22 was diluted to 3 ml with GSH Glo Reaction Buffer, and 25 μl added to the third plate (“GST-22” or “NT”). 50 μl of GSH Glo Reaction Buffer was then added to half the samples of each plate. 25 μl GSH Glo Reaction Buffer with DTT (150 μl of 100 mM DTT to 15 ml of GSH Glo Reaction Buffer) was added to the other half of the samples in each of the plates.
A 60 μl sample of GST (Promega) was diluted to 1 ml with GSH Glo Reaction Buffer, and 50 μl added to duplicate columns of each plate. […] The resulting luminescence was collected, and the duplicates averaged. The luminescence measured in the absence of GSSG was subtracted from that of the three GSSG concentrations, and the resulting values are presented in Table 6.

The test system of a further test is GST M. Put plainly: Fluorescent detection of glutathione using Coumarin derivatives, GST M. It is filed as biochemical. As to conditions: images at 1, 3, 5 and 20 minutes post GST enzyme addition.
A further test deals with GST A. Put plainly: Fluorescent detection of glutathione using Coumarin derivatives, GST A. It counts as biochemical. The note with it: images at 1, 3, 5 and 20 minutes post GST enzyme addition. As to the method: (§3) A Prionex® solution was made by mixing 200 μl of 10% Prionex® (Sigma) with 9.8 ml of 10 mM potassium phosphate buffer, pH 7.4, and 75 μl added to all wells of a 96-well, microtiter plate (“sample plate”). Stock solutions (2 mg/ml) of the GST enzymes GST (Promega Corp. V689B), GST A, GST B, and GST P (purified to have less than 1 mole of GSH per mole of protein) were diluted by addition of 12 ul of the enzyme to 150 ul of 10 mM Potassium Phosphate buffer pH 7.4/Prionex solution. These diluted stocks were then added to the wells. 75 ul of the diluted stocks were added to the wells in row A, and 75 ul transferred from row A through to row H to generate 1:1 serially diluted enzyme solutions.
(§4) To a different, 96-well microtiter plate, 25 μl of diluted PBI 4153 (25 μl 1 mg/ml solution of PBI 4153 with 5 ml of 10 mM potassium phosphate pH 7.4) was added to wells A1-H10 of the plate (“4153”). […]
(§5) If one or more of the GST enzyme forms can catalyze the Coumarin compound in the presence of glutathione, the samples containing a GST enzyme form will have an increase in fluorescence. The better the GST enzyme form can utilize the Coumarin derivative, the more rapid the increase in fluorescence, and the lower the concentrations of GST enzyme needed to be able to produce a substantial increase in fluorescence over time.

The target of test [2] is T3, GST (Promega Corp. V689B) (Schistosoma japonicum, UniProt P08515).
T3 construct: purchased Promega Corp. V689B
Put plainly: Fluorescent detection of glutathione using Coumarin derivatives, GST from Promega. It is filed as biochemical. The note with it: images at 1, 3, 5 and 20 minutes post GST enzyme addition. As to the method:
as §3, §4, §5

A further test concerns the target GST P (Homo sapiens, UniProt P09211). Put plainly: Fluorescent detection of glutathione using Coumarin derivatives, GST P. It counts as biochemical. As to conditions: images at 1, 3, 5 and 20 minutes post GST enzyme addition. As to the method:
as §3, §4, §5

Test [3] in a line: Fluorescent detection using Coumarin derivatives, control wells with only buffer (no GST). It is filed as biochemical. As to conditions: reduced glutathione present, 1, 3, 5 and 20 minutes. As to the method:
as §3, §4, §5

The conditions of test [4]: numerous reports (Srivastava et al. 2010); leading to cell death by apoptosis or necrosis; cited from earlier work.

T1 sequence (P08515 whole entry): as above
Chain of GST P (P09211 whole entry): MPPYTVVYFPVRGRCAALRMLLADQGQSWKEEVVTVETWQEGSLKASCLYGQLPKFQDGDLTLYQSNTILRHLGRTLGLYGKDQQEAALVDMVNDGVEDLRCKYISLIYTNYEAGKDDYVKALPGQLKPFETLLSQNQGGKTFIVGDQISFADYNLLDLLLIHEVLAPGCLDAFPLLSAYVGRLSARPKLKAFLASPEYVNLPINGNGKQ

In the case of `O=C(O)[C@H]1CSC(c2ccc3cc(Oc4ccc(C(F)(F)F)cc4[N+](=O)[O-])ccc3n2)=N1` [GST-3, 6-(2 nitro-4-trifluoromethyl-phenoxy)quinolinyl-luciferin], the “Luminescence values (RLUs)” value on S. japonica GST (Sigma) (reaction 3: S. japonica GST, no glutathione, 0.1 minutes) was determined as 32.67 RLUs; at S. japonica GST (Sigma) (reaction 3: S. japonica GST, no glutathione, 5 minutes), 32.42 RLUs; on S. japonica GST (Sigma) (reaction 3: S. japonica GST, no glutathione, 10 minutes), 38.65 RLUs; at S. japonica GST (Sigma) (reaction 3: S. japonica GST, no glutathione, 15 minutes), 33.82 RLUs; on S. japonica GST (Sigma) (reaction 4: S. japonica GST with glutathione, 0.1 minutes) it was 32.57 RLUs; on S. japonica GST (Sigma) (reaction 4: S. japonica GST with glutathione, 5 minutes), 40.79 RLUs. Further, the “Luminescence values (RLUs)” value at S. japonica GST (Sigma) (reaction 4: S. japonica GST with glutathione, 10 minutes) is on record as 48.64 RLUs; at S. japonica GST (Sigma) (reaction 4: S. japonica GST with glutathione, 15 minutes), 61.54 RLUs; in the test with porcine GST (Sigma) (reaction 5: porcine GST, no glutathione, 0.1 minutes), 46.95 RLUs; with porcine GST (Sigma) (reaction 5: porcine GST, no glutathione, 5 minutes), 51.85 RLUs; in the test with porcine GST (Sigma) (reaction 5: porcine GST, no glutathione, 10 minutes) it was 51.15 RLUs; in the test with porcine GST (Sigma) (reaction 5: porcine GST, no glutathione, 15 minutes), 48.41 RLUs. Besides, the “Luminescence values (RLUs)” value was found to be 71.1 RLUs in the test on porcine GST (Sigma) (reaction 6: porcine GST with glutathione, 0.1 minutes); 269.1 RLUs in the test with porcine GST (Sigma) (reaction 6: porcine GST with glutathione, 5 minutes); 463.2 RLUs in the test with porcine GST (Sigma) (reaction 6: porcine GST with glutathione, 10 minutes); 619.3 RLUs in the test with porcine GST (Sigma) (reaction 6: porcine GST with glutathione, 15 minutes); 30.42 RLUs in the test with equine GST (Sigma) (reaction 7: equine GST, no glutathione, 0.1 minutes); 32.98 RLUs in the test with equine GST (Sigma) (reaction 7: equine GST, no glutathione, 5 minutes). Moreover, the “Luminescence values (RLUs)” value turned out to be 38.75 RLUs in the test on equine GST (Sigma) (reaction 7: equine GST, no glutathione, 10 minutes); 38.39 RLUs in the test with equine GST (Sigma) (reaction 7: equine GST, no glutathione, 15 minutes); 252.2 RLUs with equine GST (Sigma) (reaction 8: equine GST with glutathione, 0.1 minutes); 3662 RLUs with equine GST (Sigma) (reaction 8: equine GST with glutathione, 5 minutes); 7629 RLUs with equine GST (Sigma) (reaction 8: equine GST with glutathione, 10 minutes); 9324 RLUs with equine GST (Sigma) (reaction 8: equine GST with glutathione, 15 minutes). Besides, the “Luminescence values (RLUs)” value in test [1] (reaction 1: no GST, no glutathione, 0.1 minutes) turned out to be 33.26 RLUs; in test [1] (reaction 1: no GST, no glutathione, 5 minutes), 38.2 RLUs; in test [1] (reaction 1: no GST, no glutathione, 10 minutes), 32.17 RLUs; in test [1] (reaction 1: no GST, no glutathione, 15 minutes), 35.53 RLUs; in test [1] (reaction 2: no GST, with glutathione, 0.1 minutes), 35.72 RLUs; in test [1] (reaction 2: no GST, with glutathione, 5 minutes), 36.07 RLUs. The “Luminescence values (RLUs)” value in test [1] (reaction 2: no GST, with glutathione, 10 minutes) turned out to be 40.85 RLUs; in [1] (reaction 2: no GST, with glutathione, 15 minutes) it was 46.43 RLUs.
Take `Cc1ccc(S(=O)(=O)Oc2ccc3nc(C4=N[C@@H](C(=O)O)CS4)sc3c2)c([N+](=O)[O-])c1` [GST-22, Luciferin 2-nitro-4-methylbenzenesulfonate]: the “Luminescence, GST with DTT” value on GST (Promega) (GST with DTT) stood at 0. The “Luminescence, No DTT” value at GST (Promega) (without enzyme and DTT) turned out to be 0. Besides, the “Luminescence, With DTT” value on GST (Promega) (without enzyme but with DTT) turned out to be 0.
Regarding `Cc1cc(=O)oc2cc(OS(=O)(=O)c3ccc([N+](=O)[O-])cc3)ccc12` [PBI 4146], the “Utilization of the Coumarin compound (increase in fluorescence)” value in the test on GST M is “can rapidly utilize the Coumarin compound”; with GST A, “either did not utilize this compound or utilized it at very, very slow rate”; in test [2], “can also utilize the compound, but at an even slower rate than GST M”; at GST P, “either did not utilize this compound or utilized it at very, very slow rate”. In test [3], the “Increase in fluorescence in control wells” value is “no apparent increase in fluorescence”.
As to `Cc1cc(=O)oc2cc(OS(=O)(=O)c3ccc([N+](=O)[O-])c4ccccc34)ccc12` [PBI 4153], the “Utilization of the Coumarin compound (increase in fluorescence)” value with GST M was “can rapidly utilize the Coumarin compound as a substrate”; in the test with GST A, “can also utilize the compound, but at a slower rate”; in test [2] it was “also utilized the compound but at an even slower rate than GST A”; on GST P it was “either did not utilize this compound or utilized it at a very, very slow rate”. For the same molecule, the “Increase in fluorescence in control wells” value in [3] is given as “no apparent increase in fluorescence”.
As for `CC(=O)Nc1ccc(O)cc1` [acetaminophen], the “Effect on the ratio of GSH to GSSG” value in test [4] is given as “dramatically reduce the ratio of GSH to GSSG”.
In the case of `NNC(=O)c1ccncc1` [isoniazid], in test [4], the “Effect on the ratio of GSH to GSSG” value is “dramatically reduce the ratio of GSH to GSSG”.
Take `CC/C(=C(\c1ccccc1)c1ccc(OCCN(C)C)cc1)c1ccccc1` [tamoxifen]: the “Effect on the ratio of GSH to GSSG” value in [4] is reported as “dramatically reduce the ratio of GSH to GSSG”.
